Data reported in US20150164895A1, “DETERMINING SENSITIVITY OF CELLS TO B-RAF INHIBITOR TREATMENT BY DETECTING KRAS MUTATION AND RTK EXPRESSION LEVELS” (GENENTECH, INC., priority 2009, published 2015).
Several values for one entry are separate records, joined by “and”; a condition that tells them apart may be missing. Equal entries are not always repeated.

System: lung tumor xenografts
Assay: Experiment H327: growth in lung tumor xenografts after dosing with B-RAF inhibitor
Assay type: in vivo, mice
Conditions: H327-2, LXFA 1041/9N4, 100 mg/kg/day po Days 0-20; for Absolute body weight, Median / Relative body weight, Median: group median n 10; for Absolute tumor volume: (a*b*b)/2, Median / Relative tumor volume, Median: group median n 20; for Absolute body weight / Relative body weight: individual animal; for Absolute body weight / Relative body weight / Relative tumor volume: listed as G-026887; for Relative tumor volume: individual tumor
Source text: FIGS. 10-18 depict growth in lung tumor xenografts after dosing with GDC-0879.
The data are shown below, and in FIGS. 10-14 for Experiment H331 and FIGS. 15-18 for Experiment H327.

In the case of `OCCn1cc(-c2ccc3c(c2)CC/C3=N\O)c(-c2ccncc2)n1` [GDC-0879, 2-{4-[(1E)-1-(hydroxyimino)-2,3-dihydro-1H-inden-5-yl]-3-(pyridine-4-yl)-1H-pyrazol-1-yl}ethan-1-ol], the “Absolute body weight, Median” value (study day 3) is reported as 25.3 g, the “Relative body weight, Median” value (study day 3) is reported as 99.2% and the “Absolute tumor volume: (a*b*b)/2, Median” value (study day 3) is reported as 139.8 mm3. For the same compound, the “Relative tumor volume, Median” value (study day 3) was 165.4%, the Absolute body weight (study day 3) was 25.6 g and 29.4 g and 24.6 g and 23.8 g and 23.6 g and 25.1 g and 29.3 g and 30.4 g and 25.4 g and 22.9 g and the Relative body weight (study day 3) was 100.8% and 102.8% and 100.4% and 97.1% and 98.3% (2×) and 100.0% and 96.5% and 101.6% and 97.0%. The Relative tumor volume (study day 3) was 193.9% and 208.9% and 154.7% and 187.7% and 202.6% and 157.6% and 110.0% and 160.2% and 138.1% and 194.2% and 138.9% and 172.0% and 178.9% and 185.0% and 157.3%, the “Absolute body weight, Median” value (study day 7) was 25.7 g and the “Relative body weight, Median” value (study day 7) was 101.4%. The “Absolute tumor volume: (a*b*b)/2, Median” value (study day 7) was 228.0 mm3, the “Relative tumor volume, Median” value (study day 7) was 258.8% and the Absolute body weight (study day 7) was 25.9 g and 30.9 g and 25.2 g and 24.3 g and 24.4 g and 25.4 g and 29.8 g and 30.5 g and 26.3 g and 22.6 g. For the same compound, the Relative body weight (study day 7) was 102.0% and 108.0% and 102.9% and 99.2% and 101.7% and 101.2% and 100.0% and 96.8% and 105.2% and 95.8%, the Relative tumor volume (study day 7) was 452.1% and 329.8% and 300.6% and 260.9% and 376.4% and 256.7% and 340.1% and 324.4% and 232.6% and 248.9% and 223.2% and 293.8% and 281.8% and 209.2% and the “Absolute body weight, Median” value (study day 10) was 25.5 g. For the same compound, the “Relative body weight, Median” value (study day 10) was 100.5%, the “Absolute tumor volume: (a*b*b)/2, Median” value (study day 10) was 305.5 mm3 and the “Relative tumor volume, Median” value (study day 10) was 388.4%. The Absolute body weight (study day 10) was 25.5 g (2×) and 30.4 g and 24.9 g and 24.3 g and 23.8 g and 30.0 g and 30.6 g and 26.1 g and 22.0 g, the Relative body weight (study day 10) was 100.4% and 106.3% and 101.6% (2×) and 99.2% (2×) and 100.7% and 97.1% and 104.4% and 93.2% and the Relative tumor volume (study day 10) was 586.9% and 487.4% and 508.8% and 376.4% and 414.0% and 411.7% and 522.2% and 562.3% and 323.9% and 342.2% and 332.9% and 385.0% and 391.8% and 264.6%. The “Absolute body weight, Median” value (study day 14) was 25.6 g, the “Relative body weight, Median” value (study day 14) was 101.4% and the “Absolute tumor volume: (a*b*b)/2, Median” value (study day 14) was 541.3 mm3. The “Relative tumor volume, Median” value (study day 14) was 605.0%, the Absolute body weight (study day 14) was 25.1 g and 30.7 g and 24.8 g and 24.6 g and 24.4 g and 26.1 g and 31.2 g and 30.4 g and 26.8 g and 22.7 g and the Relative body weight (study day 14) was 98.8% and 107.3% and 101.2% and 100.4% and 101.7% and 104.0% and 104.7% and 96.5% and 107.2% and 96.2%. The Relative tumor volume (study day 14) was 964.1% and 811.9% and 593.5% and 515.7% and 743.1% and 697.3% and 1076.6% and 1151.3% and 503.3% and 616.5% and 626.8% and 523.7% and 733.4% and 523.3%, the “Absolute body weight, Median” value (study day 17) was 25.7 g and the “Relative body weight, Median” value (study day 17) was 102.7%. The “Absolute tumor volume: (a*b*b)/2, Median” value (study day 17) was 789.5 mm3 and the “Relative tumor volume, Median” value (study day 17) was 900.4%.
